Where “and” joins values, the source holds several entries; their conditions need not be identical. Equal values may be shown once.
How the values were obtained:
[1] = Stability tests of the analytes (HPLC method validation, rat plasma); type: physicochemical; conditions: for Stability of standard stock solution: 1 mg/mL
Method: pounds. The analytical method of the analytes was validated by FDA Bioanalytical Method Validation Guidance for Industry. The chromatogram of the rat plasma spiked with J2 and SW15 (IS) or NA49 and NA27 was compared with that of the blank rat plasma in order to confirm the specificity of the analytical method. The calibration curves of J2 and NA49 in rat plasma was built for nine concentration levels in the range of 0.025–10 µg/mL. The sensitivity of detection was evaluated by the lower limit of quantification […]
than the baseline noise. The intra-day precision and accuracy were estimated by analyzing five sets of four quality control (QC) samples (0.025, 0.05, 0.5 and 5 µg/mL) in the same day. The inter-day precision and accuracy were evaluated by analyzing a set of four QC samples on five different days. The precision was expressed as a coefficient of variation (CV%) by calculating the ratio of the standard deviation to the mean measured drug con-centration. The accuracy (%) was calculated by dividing a mean measured drug concen-tration by the theoretical drug concentration. The recovery of the analytes from the plasma samples was evaluated at low and high concentrations (0.05 and 5 µg/mL, respectively) by comparing the peak areas of the analytes after extraction to those before extraction. […]
The short-term stability tests were conducted at room temperature for 4 h for J2 and 6 h for […], while the long-term stability tests were performed at −20°C and −70°C for 2 weeks and 4 weeks, respectively. The stability of the analytes following three freeze-thaw cycles, the post-preparative stability and the stock solution stability were also exam-ined. Each blood sample collected from the experimental animals was transferred into an […]

[2] = Kinetic solubility by nephelometry; type: physicochemical; conditions: aqueous buffer, kinetic from dmso stock; pH 7, nephelometry
Method: (§1) Permeability was evaluated with a parallel artificial membrane permeability (PAMPA) assay using an artificially generated lipid-infused membrane.

[3] = tested on: CHO-K1: Chinese hamster ovary cell line; assay: Cytotoxicity in normal mammalian cells (CHO-K1); type: cell-based; conditions: Cricetulus griseus; CHO-K1, 24 h, 0.01-100 μM; read-out: IC50 of compounds in various normal mammalian cells
PAMPA permeability assay = type: in vitro ADME; conditions: for Papp: read-out: Cell Permeability Log Papp (converted)
Method: as §1

CYP450 2C19 = CYP450 2C19 (Homo sapiens, UniProt P33261); assay: CYP450 enzyme inhibition, 2C19; type: in vitro ADME; conditions: compound 0.05~50 μM; read-out: IC50 against CYP450 isotype 2C19
Method: as §1

hERG K+ channel = hERG K+ channel binding assay (fluorescence polarization, red fluorescent tracer); conditions: human, probe red fluorescent hERG channel ligand tracer; concentration treated 10 μM
Method: To perform the Ames test of J2 and NA49, the number of revertant colonies was counted on each compound-treated plate at the maximum concentration at which the compound was soluble and nontoxic to the S. typhimurium tester strains (Supplementary Material S1). The ratio of the number of revertant colonies in the treated plate to colonies in the vehicle plate. […] For the hERG K^+ channel binding assay of J2 and NA49, the inhibitory activity against the hERG K^+ channel and its ligand was measured using a red fluorescent hERG channel ligand tracer. The final activity was assessed as a decrease in the degree of fluorescence polarization. […]
For hERG K+ channel binding […]
assay, measuring the inhibitory activity against the hERG K+ channel and its ligand using red fluorescent hERG channel ligand tracer. Final activity was assessed by the decrease in fluorescence polarization degree.

[4] = tested on: VERO: African green monkey kidney cell line; assay: Cytotoxicity in normal mammalian cells (VERO); type: cell-based; conditions: Chlorocebus sabaeus, 24 h, 0.01-100 μM, read-out: IC50 of compounds in various normal mammalian cells
[5] = tested on: HSP27 recombinant protein; assay: HSP27 cross-linking with recombinant protein (Western blot); type: biochemical; conditions: 10 μM, 3 h
Method: For polyacrylamide gel electrophoresis (PAGE) and Western blot (WB) analysis, cells were lysed with radioimmunoprecipitation assay (RIPA) buffer (50 mM Tris-HCl [pH 7.5], 150 mM NaCl, 1% NP-40, 0.1% sodium dodecyl sulfate (SDS), and 1% sodium deoxycholate) supplemented with 1 mM Na3VO4, 1 mM dithiothreitol (DTT), 1 mM phenyl-methyl-sulfonyl fluoride (PMSF), and protease inhibitor cocktail (Calbiochem). The samples were boiled for 5 min, and equal amounts of protein were analyzed by SDS-PAGE. […]
Figure S3. […] (A) HSP25 WT protein was pretreated with NAC (N-acetyl-L-cysteine) at 20 mM for 30 min and then treated with J2 or NA49 at 10 μM. After 3 h, the dimerization of proteins was altered. ( B) NCI-H460 cells were tr eated with J2 or NA49 (0, 1, 5, 10 and 20 μM) for 24 h, and cell lysates were detected by Western blot analysis. […]

Chain of CYP450 2C19 (P33261 whole entry): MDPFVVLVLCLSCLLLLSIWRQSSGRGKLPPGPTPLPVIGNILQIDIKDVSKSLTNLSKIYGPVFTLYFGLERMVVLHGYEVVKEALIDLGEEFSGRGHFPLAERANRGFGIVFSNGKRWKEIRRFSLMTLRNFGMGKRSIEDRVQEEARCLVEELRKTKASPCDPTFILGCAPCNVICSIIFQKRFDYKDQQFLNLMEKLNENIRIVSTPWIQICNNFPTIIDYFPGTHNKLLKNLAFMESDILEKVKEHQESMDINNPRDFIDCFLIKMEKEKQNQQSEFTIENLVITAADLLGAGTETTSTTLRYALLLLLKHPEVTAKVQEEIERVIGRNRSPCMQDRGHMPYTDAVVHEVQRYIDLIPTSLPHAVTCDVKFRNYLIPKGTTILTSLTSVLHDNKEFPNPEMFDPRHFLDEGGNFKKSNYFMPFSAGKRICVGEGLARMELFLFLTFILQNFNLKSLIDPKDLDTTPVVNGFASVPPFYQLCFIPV

Row | SMILES | Stability of post-preparative sample [1] | Stability of standard stock solution [1] [%] | Stability after three freeze–thaw cycles, mean ([1]; low concentration (0.05 µg/mL)) [%] | Stability at −70°C for 4 weeks, mean ([1]; low concentration (0.05 µg/mL)) [%] | solubility kinetic [2] | IC50 [3] [µM] | Cell permeability, rating (PAMPA permeability assay) | Papp (PAMPA permeability assay) [×10⁻⁶ cm/s] | IC50 (CYP450 2C19) [µM] | inhibition at 10 μM (hERG K+ channel) [%] | IC50 [4] [µM] | HSP27 cross-linking activity (altered dimerization) [5]
1 | Cc1cc(=O)c2c(O)cc(OCC3CS3)cc2o1 (stereo not shown) [J2] | 102.2–103.4% | 113.2 | 116.6 | 115.2 | 73.2 µM and 19.5 µg/mL | > 100 | low | 12.6 | > 50 | 8.7 ± 2.22 | 91.8 | Altered dimerization of HSP27
2 | COc1ccc(-c2coc3cc(OCC4CS4)ccc3c2=O)c(OC)c1 (stereo not shown) [NA49] | 96.9–102.4% | 98.7 | – | – | 90.2 µM and 33.4 µg/mL | 90.4 | moderate | 32.4 | > 50 | 39 ± 3.9 | 83.6 | stronger cross-linking activity than J2
